Earlier results, collected in patent publication US6538179B1, “Enhanced starch biosynthesis in seeds” (Monsanto Technology LLC, priority 1990, dated 2003).

Target: plant ADPGPP (Solanum tuberosum, UniProt P23509+Q00081)
Sequence (Q00081 whole entry): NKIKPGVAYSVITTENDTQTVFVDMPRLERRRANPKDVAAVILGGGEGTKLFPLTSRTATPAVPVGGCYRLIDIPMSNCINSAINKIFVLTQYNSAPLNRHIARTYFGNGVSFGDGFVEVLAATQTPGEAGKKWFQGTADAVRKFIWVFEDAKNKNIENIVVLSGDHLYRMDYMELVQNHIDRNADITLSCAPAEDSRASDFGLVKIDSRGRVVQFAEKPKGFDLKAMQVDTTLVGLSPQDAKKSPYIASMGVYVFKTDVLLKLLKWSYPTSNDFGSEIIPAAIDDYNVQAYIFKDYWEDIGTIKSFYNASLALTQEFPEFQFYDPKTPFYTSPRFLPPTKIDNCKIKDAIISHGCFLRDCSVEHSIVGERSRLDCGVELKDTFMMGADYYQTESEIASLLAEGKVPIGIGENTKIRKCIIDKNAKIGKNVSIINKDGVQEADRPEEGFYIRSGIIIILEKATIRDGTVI
Sequence (P23509 73-521): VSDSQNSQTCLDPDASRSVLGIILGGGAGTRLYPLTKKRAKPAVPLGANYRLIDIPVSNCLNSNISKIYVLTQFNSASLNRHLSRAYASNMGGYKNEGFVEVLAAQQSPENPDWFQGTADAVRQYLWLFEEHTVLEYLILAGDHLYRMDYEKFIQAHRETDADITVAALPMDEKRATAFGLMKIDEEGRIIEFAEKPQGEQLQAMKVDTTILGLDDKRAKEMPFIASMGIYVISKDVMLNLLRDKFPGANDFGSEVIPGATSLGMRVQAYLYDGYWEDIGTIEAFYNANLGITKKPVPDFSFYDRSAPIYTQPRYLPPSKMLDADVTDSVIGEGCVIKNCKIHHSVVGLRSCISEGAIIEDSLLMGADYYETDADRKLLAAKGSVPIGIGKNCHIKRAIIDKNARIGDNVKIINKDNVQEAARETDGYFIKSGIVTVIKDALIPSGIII

Compound	EC50 (activation of ADPGPP by 3-PGA, read-out: A0.5)	IC50 (read-out: I0.5, inhibition of ADPGPP by Pi)
O=C(O)[C@H](O)COP(=O)(O)O [3-PGA, 3-phosphoglycerate]	75 µM	
O=P(O)(O)O [Pi, inorganic phosphate]		45 µM
